Data from patent US5342612A, “Compositions for the treatment of mammalian diseases” (priority 1991, dated 1994).

Legend:
[1] = system: S. aureus mastitis (Newbould 305); experiment: r-BoIL-2 formulated in poloxamer 407 NF as a therapeutic for S. aureus mastitis (Example 6); assay type: in vivo, Holstein-Fresian dairy cattle
Method: This experiment compares r-BoIL-2 formulated in poloxamer 407 NF, against CEFA-LAK® (cephapirin in a commercial formulation), Na cephapirin (in PBS) and r-BoIL-2 in combination with Na cephapirin (in PBS) as potential therapeutics for S. aureus mastitis. The study employs the following materials: recombinant bovine interleukin-2 (r-BOIL-2, Immunex Corporation, Seattle, Wash.); CEFA-LAK® (200 mg cephapirin as cephapirin sodium in a commercially packaged dose, Bristol-Meyers, Evansville, Ind.); 200 mg Na cephapirin dissolved in 10.0 mL sterile saline; PLURONIC® ACID F127 (poloxamer 407 NF, BASF Corporation, Parsippany, N.J.).
The treatment of Holstein-Fresian dairy cattle is run over three days. There are four treatment groups as follows:
Treatment 1=2 infusions consisting of 200 mg cephapirin (as CEFA-LAK®),at 0 and 12 hours.
Treatment 2=3 infusions consisting of 10 mg r-BoIL-2/poloxamer 407 NF at 0, 24 and 48 hours.
Treatment 3=3 infusions consisting of 3.3 mg r-BoIL-2 in 10 mL PBS at 0, 24 and 48 hours, followed by 2 infusions of 200 mg Na cephapirin in 10 mL PBS at 0 and 12 hours.
Treatment 4=2 infusions consisting of 200 mg Na cephapirin in 10 mL PBS at 0 and 12 hours.
All mammary glands to be infused have been infected with S. aureus (Newbould 305). Infusions are made into the teat cistern of a milked out mammary gland after the prescribed milking. […]

[2] = system: S. aureus; experiment: Potentiation of bacteriostatic activity of lysostaphin by vehicles (checkered analysis); assay type: cell-based, Staphylococcus aureus; settings: for Vehicle Conc. w/Max. Potentiation (%): with r-lysostaphin; for Character of potentiation: in words (footnotes, text); for Potentiation Index Compared to Lysostaphin: M.I.C. of r-lysostaphin in saline / M.I.C. in formulation with the vehicle
Text: In order to identify the nontoxic formulations for mammalian use, toxicity is employed as a method to eliminate direct bactericidal effects on the S. aureus, as well as potential toxic effects on the target animal. Compounds are formulated with r-lysostaphin at concentrations below toxic effects and compared to the bacteriostatic activity of r-lysostaphin in a saline formulation. Some compounds potentiate r-lysostaphin bacteriostatic activity by as much as 300-1000 fold.
Several surfactants, detergents, oils, emollients and membrane solubilizers are chosen as representative of various classes of compounds which may affect protein activity. These vehicles are then evaluated for toxicity and potentiation of the bacteriostatic effects of r-lysostaphin on S. aureus according to the methods described in the foregoing examples. […] Secondly, the vehicles are subjected to the toxicity test on murine cells in vitro. Viable cells are evaluated by trypan blue exclusion and normalized to an untreated control. Thereafter, dairy cattle are infused through the teat canal with various concentrations of the vehicle to make a determination of the irritation potential after intramammary infusion as a measure of mammalian toxicity. Milk samples are collected after infusion of said vehicles and the somatic cell count is determined. The Stimulation Index equals the post-infusion SCC divided by the pre-infusion SCC. The vehicles showing minimal toxicity to S. aureus and mammalian cells in vitro and in vivo are subsequent candidates for evaluation in the in vivo potentiation trials.
Various vehicle combinations are tested in a standard checkered analysis which simultaneously varies the concentration of both parameters to examine the individual contribution of each. Vehicles are all compared to r-lysostaphin in a saline solution, i.e., the potentiation index. […] Glycerol and triacetin, while only potentiating the activity of r-lysostaphin 6-8 fold, is manifested by bactericidal effects (see above Table IV).

[3] = system: Staphylococcus aureus mastitis (Newbould 305); experiment: Efficacy of lysostaphin formulated in vehicles as intramammary infusion against Staphylococcus aureus mastitis; assay type: in vivo, bovine (dairy cows)
Text: This experiment examines the ability of various lysostaphin formulations to eliminate S. aureus infections in the bovine mammary gland and compares the formulations with the testing of lysostaphin in a peanut oil-gel matrix, similar to that used in the commercial product CEFA-LAK®, which is used to treat mastitis in lactating dairy cows.
Lysostaphin is formulated in three vehicles: 15% w/v poloxamer 407 NF, 50% w/v glycerol or 10% w/v triacetin. Lysostaphin is also formulated in a peanut oil-gel matrix. These formulations are infused into the bovine mammary gland and the ability of these combinations to exact a biological response, either by curing the infection or by clearing the mammary gland temporarily of S. aureus, are assessed.
Recombinant lysostaphin is suspended in 10.0 mL of peanut oil vehicle or dissolved in 60.0 mL of appropriate sterile vehicle (sPBS) at a concentration of 10.0 mg/mL or 1.67 mg/mL, respectively. Each of 15% poloxamer 407 NF (PLURONIC® ACID F127, a polyoxyethylene-polyoxypropylene derivative, BASF Corporation, Parsippany, N.J.); 50% glycerol (Sigma Chemical Co., St. Louis, Mo.); and 10% triacetin (glyceryl triacetate, Sigma Chemical Co., St. Louis, Mo.) are prepared in sterile phosphate buffered saline.
Staphylococcus aureus infections of the mammary gland provide an excellent model system for evaluating therapeutic efficacy of a variety of pharmaceutical and biological agents for many infectious diseases of mammals. Therefore, experimental infections are established with S. aureus (strain Newbould 305). All mammary glands to be inoculated are free of pathogens and have individual quarter somatic cell counts (SCC) less than 200,000 cells/mL of milk. Inoculum is prepared from a four-hour culture grown in trypticase soy broth and diluted. Inoculations are made by infusion of 1.0 mL diluted culture containing 90 colony forming units of S. aureus (Newbould 305) into the teat cistern of a milked-out mammary quarter. Quarters which fail to establish an infection after six days from initial inoculation are reinfected.
Prepared in PBS is 50% glycerol and the solution is then sterile filtered (0.45μ). Poloxamer 407 NF is mixed overnight and prepared similarly. A 10% triacetin solution is prepared aseptically in sterile PBS. Appropriate amounts of lysostaphin is added so the final concentration is 1.67 mg/mL. All preparations are in a total volume of 60.0 mL and made the day of the infusion. All solutions are sterile filtered through a 0.45μ filter.
Duration of treatment: 3 consecutive PM milkings
Quarters are randomly assigned to one of six treatment groups. All quarters are infused with the appropriate vehicle (60.0 mL) with or without lysostaphin over three consecutive PM milkings. […]

[4] = system: S. aureus; experiment: Potentiation of lysostaphin bactericidal activity (minimum bactericidal concentration assay, survival of S. aureus); assay type: cell-based, Staphylococcus aureus; settings: 18 h
Method: Preparation of 50% glycerol and 15% poloxamer 407 NF plus lysostaphin is as follows: The lysostaphin stock of 2.5 mg/mL is thawed and filtered through a 0.22μ filter. [formula]
In a similar fashion, triacetin solutions are also prepared.
Mueller-Hinton Broth containing lysostaphin is prepared as above. Penicillin in Mueller-Hinton Broth is prepared to serve as a control. Starting with a frozen 2.5 mg/mL stock solution the penicillin is diluted as follows: 400 μl of 2.5 mg/mL is placed in 600 μl of Mueller-Hinton Broth to yield a 1000 μg/mL solution. Added to 3744 μl of Mueller-Hinton Broth is 256 μl of the 1000 μg/mL solution to yield a 64 μg/mL solution.
Placed in sterile tubes are 2 mL of the vehicle and lysostaphin; Mueller-Hinton Broth plus lysostaphin; and Mueller-Hinton Broth plus penicillin. Serial two-fold dilutions are performed by hand using 1 mL of the appropriate vehicle as the diluent. Lysostaphin and penicillin dilutions range from 64 μg/mL to 0.25 μg/mL. All combinations are done in duplicate. The Staphylococcus aureus is grown for 5 hours in 5 mL of TSB and 0.1 mL is removed and placed in 9.9 mL of saline. Each tube is inoculated with 100 μl of the diluted culture. Plate counts are performed on the inoculum. All tubes are incubated for 18 hours at 37° C. with constant agitation. Following incubation, each dilution of lysostaphin in the vehicles or Mueller-Hinton Broth and penicillin in Mueller-Hinton Broth is diluted in phosphate buffered saline to 10^-2, 10^-4 and 10^-6.
Plated on a TSA with 10% sheep blood is 100 μl of the undilute and of each dilution. The plates are inverted and incubated for 18 hours. Following incubation, the number of colonies on each plate is counted.
The vehicles which inhibit the growth or are moderately bactericidal to S. aureus by themselves are unable to be evaluated using the MIC procedure. For these vehicles a minimum bactericidal concentration assay (MBC) is performed. This assay in conjunction with the previous MIC data distinguish bacteriostatic effects versus bactericidal effects of the vehicles. Various formulations are mixed with lysostaphin at a final concentration of 32 μg/mL. Ten, serial two- or four-fold dilutions of the lysostaphin are performed in the vehicle and each tube inoculated with a 2-6 x's 106 S. aureus CFU's (bacterial colony-forming units). Samples are removed after 18 hours and plated on blood agar plates.

[5] = Toxicosis following r-BoIL-2 and r-BoIL-1 formulated infusions; assay type: in vivo, dairy cattle; settings: in words
Text: Daily observations of dairy cattle are made for any signs of toxicosis following the beginning of treatment.

[6] = lysostaphin (or penicillin) 1 μg/mL
[7] = lysostaphin (or penicillin) 4 μg/mL

## CC(=O)OCC1=C(C(=O)O)N2C(=O)[C@@H](NC(=O)CSc3ccncc3)[C@H]2SC1 [Cephapirin]
[1]; CEFA-LAK 200 mg x2, r-BoIL-2/F127 10 mg x3, r-BoIL-2 3.3 mg x3 + cephapirin 200 mg x2, cephapirin 200 mg x2, quarters culture negative at first sampling
  Response (%): 85%
[1]; same doses, days eight to fifteen following final treatment
  Cure (%): 23.1%

## CCCCCCCCCC(=O)N(C)C[C@H](O)[C@@H](O)[C@H](O)[C@H](O)CO [Decanoyl-n-methylglucamid]
[2]
  Vehicle Conc. w/Max. Potentiation (%): 0.078%

## CCCCCCCCCCCCO[C@@H]1O[C@H](CO)[C@@H](O[C@H]2O[C@H](CO)[C@@H](O)[C@H](O)[C@H]2O)[C@H](O)[C@H]1O [Dodecyl B-D-maltosid]
[2]
  Vehicle Conc. w/Max. Potentiation (%): 0.0024%

## OCC(O)CO [Glycerol]
[2]
  Character of potentiation: Potentiates the bactericidal activity of rlysostaphin
  Vehicle Conc. w/Max. Potentiation (%): 50.0%
[3]; 100 mg lysostaphin infusions on three consecutive days
  % Cures: 25%
[3]; in words
  Effect on potentiating the in vivo efficacy of lysostaphin: Neither glycerol nor triacetin (both have a cure rate of 25%) has any significant effect

## CCCCCCCC(=O)N(C)C[C@H](O)[C@@H](O)[C@H](O)[C@H](O)CO [Octanoyl-n-methylglucamid]
[2]
  Vehicle Conc. w/Max. Potentiation (%): 0.31%

## CC1(C)S[C@@H]2[C@H](NC(=O)Cc3ccccc3)C(=O)N2[C@H]1C(=O)O [Penicillin, reference compound]
[4]; lysostaphin (or penicillin) 0.5 μg/mL
  Survival of S. aureus CFU (Log 10) in Vehicles: 4.2 CFU (Log 10)
[4]; [6]
  Killing of S. aureus (footnote class): ^3 (Greater than 99.99% killing of S. aureus)
  Survival of S. aureus CFU (Log 10) in Vehicles: 2.5 CFU (Log 10)
[4]; [7]
  Killing of S. aureus (footnote class): ^3 (Greater than 99.99% killing of S. aureus)
  Survival of S. aureus CFU (Log 10) in Vehicles: 3.1 CFU (Log 10)
[4]; lysostaphin (or penicillin) 8 μg/mL
  Survival of S. aureus CFU (Log 10) in Vehicles: 0 CFU (Log 10)
[4]; penicillin 0.5 μg/mL
  Killing of S. aureus (footnote class): ^3 (Greater than 99.99% killing of S. aureus)

## CC(O)CO (stereo not drawn) [Propylene Glycol]
[2]
  Vehicle Conc. w/Max. Potentiation (%): 0.195%

## CCCCCCCCCCCCOC1O[C@H](CO)[C@@H](O)[C@H](O)[C@H]1O (stereo partly drawn) [n-Dodecylglucosid]
[2]
  Potentiation Index Compared to Lysostaphin: 1025.0
  Character of potentiation: Potentiation is eliminated when diluted fourfold
  Vehicle Conc. w/Max. Potentiation (%): 0.078%

## CCCCCCCCOC1O[C@H](CO)[C@@H](O)[C@H](O)[C@H]1O (stereo partly drawn) [n-Octylglucosid]
[2]
  Potentiation Index Compared to Lysostaphin: 1.0
  Vehicle Conc. w/Max. Potentiation (%): 0.039%

B1: r-BoIL-2: recombinant bovine interleukin-2, Immunex Corporation, Seattle, Wash. (protein, UniProt P05016 21-155, looked up)
Interleukin-2: APTSSSTGNTMKEVKSLLLDLQLLLEKVKNPENLKLSRMHTFDFYVPKVNATELKHLKCLLEELKLLEEVLNLAPSKNLNPREIKDSMDNIKRIVLELQGSETRFTCEYDDATVNAVEFLNKWITFCQSIYSTMT
[5]; compared with PBS carrier
  Observable signs of toxicosis / adverse clinical signs: A decrease of adverse clinical signs are observed
[5]; in polyoxypropylene-polyoxyethylene block copolymer
  Side effects compared with r-BoIL-2 in PBS: substantially less detrimental to an animal than infusions of r-BoIL-2 in sterile phosphate buffered saline
